Source: patent publication US6737383B1, “Herbicidal oxadiazolidines” (priority 1999, dated 2004)

What was measured:
[1] = test system: corn; assay: Test B pre/postemergence corn; format: in vivo, Zea mays
Outline: (§1)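 Test chemicals in a non-phytotoxic solvent mixture with surfactant were sprayed preemergence onto planted seeds and postemergence onto plants 2 to 18 cm tall (1- to 4-leaf stage). After twelve to sixteen days in a greenhouse, injury was visually rated against untreated controls from 0 (no effect) to 10 (complete control).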

[2] = test system: rice; assay: Test B flood test rice; format: in vivo, Oryza sativa; settings: flood test species
Outline: (§2)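 Each value is a visual injury score relative to controls, with 10 meaning complete control and 0 no effect. Evaluation took place twelve to sixteen days after the 2-leaf-stage plants were treated and kept in the greenhouse.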

[3] = test system: purple nutsedge; assay: Test B pre/postemergence purple nutsedge; format: in vivo, Cyperus rotundus
Outline: as §1

[4] = test system: soybean; assay: Test B pre/postemergence soybean; format: in vivo, Glycine max
Outline: as §1

[5] = test system: blackgrass; assay: Test B pre/postemergence blackgrass; format: in vivo, Alopecurus myosuroides
Outline: as §1

[6] = test system: smallflower flatsedge; assay: Test B flood test smallflower flatsedge; format: in vivo, Cyperus difformis; settings: flood test species
Outline: as §2

[7] = test system: crabgrass; assay: Test B pre/postemergence crabgrass; format: in vivo, Digitaria sanguinalis
Outline: as §1

[8] = test system: wild oat; assay: Test B pre/postemergence wild oat; format: in vivo, Avena fatua
Outline: as §1

[9] = test system: duck salad; assay: Test B flood test duck salad; format: in vivo, Heteranthera limosa; settings: flood test species
Outline: as §2

[10] = test system: cocklebur; assay: Test B pre/postemergence cocklebur; format: in vivo, Xanthium strumarium
Outline: as §1

[11] = test system: bedstraw; assay: Test B pre/postemergence bedstraw; format: in vivo, Galium aparine; settings: Postemergence, Rate 500 g/ha; scale of 0 to 10 where 0 is no effect and 10 is complete control
Outline: as §1

[12] = test system: bamyardgrass; assay: Test B flood test barnyardgrass; format: in vivo, Echinochloa crus-galli; settings: flood test species
Outline: as §2

[13] = test system: surinam grass; assay: Test B pre/postemergence surinam grass; format: in vivo, Brachiaria decumbens
Outline: as §1

[14] = test system: wheat; assay: Test B pre/postemergence wheat; format: in vivo, Triticum aestivum
Outline: as §1

[15] = test system: giant foxtail; assay: Test B pre/postemergence giant foxtail; format: in vivo, Setaria faberii
Outline: as §1

[16] = test system: morningglory; assay: Test B pre/postemergence morningglory; format: in vivo, Ipomoea hederacea
Outline: as §1

[17] = test system: velvetleaf; assay: Test B pre/postemergence velvetleaf; format: in vivo, Abutilon theophrasti
Outline: as §1

[18] = test system: sugar beet; assay: Test B pre/postemergence sugar beet; format: in vivo, Beta vulgaris
Outline: as §1

[19] = test system: pigweed; assay: Test B pre/postemergence pigweed; format: in vivo, Amaranthus retroflexus
Outline: as §1

[20] = test system: rape; assay: Test B pre/postemergence rape; format: in vivo, Brassica napus
Outline: as §1

[21] = Postemergence, Rate 125 g/ha, scale 0 to 10, 0 is no effect, 10 is complete control
[22] = Postemergence, Rate 250 g/ha, scale 0 to 10, 0 is no effect, 10 is complete control
[23] = Postemergence, Rate 500 g/ha, scale of 0 to 10 where 0 is no effect and 10 is complete control
[24] = Preemergence, Rate 62 g/ha, scale 0 to 10 (0 no effect, 10 complete control)
[25] = Preemergence, Rate 125 g/ha, scale of 0 to 10 where 0 is no effect and 10 is complete control
[26] = Preemergence, Rate 250 g/ha, scale 0 to 10, 0 is no effect, 10 is complete control
[27] = Preemergence, Rate 500 g/ha, scale 0 to 10, 0 is no effect, 10 is complete control
[28] = Rate 62 g/ha, Postemergence, scale of 0 to 10 where 0 is no effect and 10 is complete control
[29] = Rate 62 g/ha, Pre-emergence, visual evaluation after twelve to sixteen days
[30] = Rate 125 g/ha, under heading Pre-emergence, visual evaluation after twelve to sixteen days
[31] = Rate 500 g/ha, Pre-emergence, scale 0 to 10 (0 no effect, 10 complete control)
[32] = Preemergence, Rate 250 g/ha, scale of 0 to 10 where 0 is no effect and 10 is complete control

## CC(C)Cn1c(=O)on(C(=O)N(c2ccccc2)C(C)C)c1=O [Compound 410]
[1]; [21]
  Plant response rating, Corn: 0
[1]; [22]
  Plant response rating, Corn: 0
[1]; [23]
  Corn plant response rating: 3
[1]; [24]
  Plant response rating, Corn: 0
[1]; [25]
  Plant response rating, Corn: 0
[1]; [26]
  Corn plant response rating: 4
[1]; [27]
  Corn plant response rating: 9
[1]; [28]
  Corn plant response rating: 0
[2]; [29]
  Plant response rating, Rice (0 to 10 scale, 0 is no effect, 10 is complete control): 0
[2]; [30]
  Rice plant response rating (0 to 10 scale, 0 is no effect, 10 is complete control): 0
[2]; [31]
  Rice plant response rating: 5
[3]; [22]
  Plant response rating, Nutsedge: 0
[3]; [23]
  Nutsedge plant response rating: 0
[3]; [24]
  Plant response rating, Nutsedge: 0
[3]; [25]
  Plant response rating, Nutsedge: 0
[3]; [26]
  Nutsedge plant response rating: 0
[4]; [22]
  Plant response rating, Soybean: 5
[4]; [23]
  Soybean plant response rating: 6
[4]; [24]
  Plant response rating, Soybean: 0
[4]; [25]
  Plant response rating, Soybean: 0
[4]; [26]
  Soybean plant response rating: 0
[4]; [27]
  Soybean plant response rating: 3
[5]; [21]
  Plant response rating, Blackgrass: 8
[5]; [22]
  Plant response rating, Blackgrass: 9
[5]; [23]
  Blackgrass plant response rating: 9
[5]; [24]
  Plant response rating, Blackgrass: 3
[5]; [25]
  Plant response rating, Blackgrass: 8
[5]; [32]
  Blackgrass plant response rating: 8
[5]; [27]
  Blackgrass plant response rating: 10
[6]; [29]
  Plant response rating, S. Flatsedge (0 to 10 scale, 0 is no effect, 10 is complete control): 3
[6]; [30]
  S. Flatsedge plant response rating (0 to 10 scale, 0 is no effect, 10 is complete control): 3
[6]; [31]
  S. Flatsedge plant response rating: 9
[7]; [21]
  Plant response rating, Crabgrass: 4
[7]; [22]
  Plant response rating, Crabgrass: 8
[7]; [23]
  Crabgrass plant response rating: 10
[7]; [24]
  Plant response rating, Crabgrass: 7
[7]; [25]
  Plant response rating, Crabgrass: 9
[7]; [26]
  Crabgrass plant response rating: 10
[7]; [27]
  Crabgrass plant response rating: 10
[7]; [28]
  Crabgrass plant response rating: 4
[8]; [23]
  Wild oats plant response rating: 5
[8]; [24]
  Plant response rating, Wild oats: 3
[8]; [25]
  Plant response rating, Wild oats: 6
[8]; [26]
  Wild oats plant response rating: 7
[8]; [27]
  Wild oats plant response rating: 10
[9]; [29]
  Plant response rating, Ducksalad (0 to 10 scale, 0 is no effect, 10 is complete control): 0
[9]; [30]
  Ducksalad plant response rating (0 to 10 scale, 0 is no effect, 10 is complete control): 0
[9]; [31]
  Ducksalad plant response rating: 2
[10]; [21]
  Plant response rating, Cocklebur: 0
[10]; [22]
  Plant response rating, Cocklebur: 0
[10]; [23]
  Cocklebur plant response rating: 1
[10]; [24]
  Plant response rating, Cocklebur: 0
[10]; [25]
  Plant response rating, Cocklebur: 0
[10]; [26]
  Cocklebur plant response rating: 0
[10]; [27]
  Cocklebur plant response rating: 0
[10]; [28]
  Cocklebur plant response rating: 0
[11]
  Bedstraw plant response rating: 7
[12]; [29]
  Plant response rating, Barnyardgrass (0 to 10 scale, 0 is no effect, 10 is complete control): 0
[12]; [30]
  Barnyardgrass plant response rating (0 to 10 scale, 0 is no effect, 10 is complete control): 4
[12]; [31]
  Barnyardgrass plant response rating: 9
[13]; [21]
  Plant response rating, B. signalgrass: 0
[13]; [22]
  Plant response rating, B. signalgrass: 5
[13]; [23]
  B. signalgrass plant response rating: 7
[13]; [24]
  Plant response rating, B. signalgrass: 1
[13]; [25]
  Plant response rating, B. signalgrass: 5
[13]; [32]
  B. signalgrass plant response rating: 7
[13]; Preemergence, Rate 500 g/ha, scale of 0 to 10 where 0 is no effect and 10 is complete control
  B. signalgrass plant response rating: 10
[13]; [28]
  B. signalgrass plant response rating: 0
[14]; [23]
  Wheat plant response rating: 4
[14]; [24]
  Plant response rating, Wheat: 0
[14]; [25]
  Plant response rating, Wheat: 3
[14]; [26]
  Wheat plant response rating: 7
[14]; [27]
  Wheat plant response rating: 8
[15]; [21]
  Plant response rating, Giant foxtail: 9
[15]; [22]
  Plant response rating, Giant foxtail: 9
[15]; [23]
  Giant foxtail plant response rating: 9
[15]; [24]
  Plant response rating, Giant foxtail: 9
[15]; [25]
  Plant response rating, Giant foxtail: 9
[15]; [26]
  Giant foxtail plant response rating: 10
[15]; [27]
  Giant foxtail plant response rating: 10
[15]; [28]
  Giant foxtail plant response rating: 8
[16]; [22]
  Plant response rating, Morningglory: 8
[16]; [23]
  Morningglory plant response rating: 8
[16]; [24]
  Plant response rating, Morningglory: 0
[16]; [25]
  Plant response rating, Morningglory: 0
[16]; [26]
  Morningglory plant response rating: 0
[16]; [27]
  Morningglory plant response rating: 0
[17]; [22]
  Plant response rating, Velvetleaf: 0
[17]; [23]
  Velvetleaf plant response rating: 0
[17]; [24]
  Plant response rating, Velvetleaf: 3
[17]; [25]
  Plant response rating, Velvetleaf: 4
[17]; [26]
  Velvetleaf plant response rating: 6
[17]; [27]
  Velvetleaf plant response rating: 8
[18]; [22]
  Plant response rating, Sugarbeets: 7
[18]; [23]
  Sugarbeets plant response rating: 8
[18]; [24]
  Plant response rating, Sugarbeets: 0
[18]; [25]
  Plant response rating, Sugarbeets: 0
[18]; [26]
  Sugarbeets plant response rating: 0
[18]; [27]
  Sugarbeets plant response rating: 0
[19]; [22]
  Plant response rating, Redroot pigweed: 0
[19]; [23]
  Redroot pigweed plant response rating: 2
[19]; [24]
  Plant response rating, Redroot pigweed: 0
[19]; [25]
  Plant response rating, Redroot pigweed: 0
[19]; [26]
  Redroot pigweed plant response rating: 2
[19]; [27]
  Redroot pigweed plant response rating: 8
[20]; [22]
  Plant response rating, Rape: 7
[20]; [23]
  Rape plant response rating: 7
[20]; [24]
  Plant response rating, Rape: 0
[20]; [25]
  Plant response rating, Rape: 0
[20]; [26]
  Rape plant response rating: 2
[20]; [27]
  Rape plant response rating: 8
